Reference: ChEMBL document CHEMBL5346940, “Design, synthesis and biological evaluation of dual Topo II/HDAC inhibitors bearing pyrimido[5,4-b]indole and pyrazolo[3,4-d]pyrimidine motifs” (Eur J Med Chem, 2023)
Active and inactive are the calls of the source. The calls are words filed in the database; no cut-off is given here.

Experiments:
[1] = tested on: MGC-803; assay: Antiproliferative activity against human MGC-803 cells assessed as reduction in cell viability measured for 48 hrs by MTT assay; format: functional, cell-based; conditions: MGC-803, 48 h
[2] = tested on: MCF7; assay: Antiproliferative activity against human MCF7 cells assessed as reduction in cell viability measured for 48 hrs by MTT assay; format: functional, cell-based; conditions: MCF7, 48 h
[3] = tested on: U-937; assay: Antiproliferative activity against human U-937 cells assessed as reduction in cell viability measured for 48 hrs by MTT assay; format: functional, cell-based; conditions: U-937, 48 h
[4] = tested on: NIH3T3; assay: Antiproliferative activity against mouse 3T3 cells assessed as reduction in cell viability at 100 uM measured for 48 hrs by MTT assay relative to control; format: toxicity, cell-based; conditions: nih3t3, 48 h
[5] = molecular target: T1, DNA topoisomerase 1 (Homo sapiens) (UniProt P11387); assay: Inhibition of human topoisomerase 1 assessed as relaxation of pBR322 plasmid DNA at 100 uM measured after 30 mins by agarose gel electrophoresis analysis
T1 sequence (whole entry): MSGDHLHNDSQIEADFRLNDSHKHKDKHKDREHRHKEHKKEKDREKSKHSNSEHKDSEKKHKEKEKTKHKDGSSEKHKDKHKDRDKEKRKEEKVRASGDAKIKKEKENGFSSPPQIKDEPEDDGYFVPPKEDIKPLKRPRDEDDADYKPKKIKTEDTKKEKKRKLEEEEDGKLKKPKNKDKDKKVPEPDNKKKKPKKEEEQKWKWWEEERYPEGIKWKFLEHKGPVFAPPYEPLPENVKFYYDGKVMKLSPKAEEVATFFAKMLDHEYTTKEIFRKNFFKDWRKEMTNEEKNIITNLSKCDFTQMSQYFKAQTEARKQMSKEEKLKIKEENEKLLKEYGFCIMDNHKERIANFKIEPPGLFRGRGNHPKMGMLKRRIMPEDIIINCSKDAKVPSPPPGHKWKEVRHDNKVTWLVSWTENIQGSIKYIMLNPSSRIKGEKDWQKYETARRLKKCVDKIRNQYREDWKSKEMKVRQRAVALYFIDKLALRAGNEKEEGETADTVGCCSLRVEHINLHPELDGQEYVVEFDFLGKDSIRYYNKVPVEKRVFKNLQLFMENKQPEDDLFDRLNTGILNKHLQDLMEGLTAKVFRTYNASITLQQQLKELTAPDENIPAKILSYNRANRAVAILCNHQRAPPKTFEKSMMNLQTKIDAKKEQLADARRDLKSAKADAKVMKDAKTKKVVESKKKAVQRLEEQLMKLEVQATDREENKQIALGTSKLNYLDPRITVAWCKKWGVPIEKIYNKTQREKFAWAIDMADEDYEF

[6] = molecular target: DNA topoisomerase 2-alpha (Homo sapiens) (UniProt P11388); assay: Inhibition of human topoisomerase 2 assessed as relaxation of pBR322 plasmid DNA at 100 uM measured after 30 mins by ethidium bromide staining based UV transilluminator analysis
[7] = tested on: MCF7; assay: Induction of apoptosis in human MCF7 cells assessed as viable cells at 10 uM incubated for 48 hrs by AnnexinV-FITC/propidium iodide staining based flow cytometry analysis (reference value: 99.2 %); format: functional; conditions: read-out: Activity
[8] = tested on: MCF7; assay: Induction of apoptosis in human MCF7 cells assessed as early apoptotic cells at 10 uM incubated for 48 hrs by AnnexinV-FITC/propidium iodide staining based flow cytometry analysis (reference value: 0.28 %); format: functional
[9] = tested on: MCF7; assay: Induction of apoptosis in human MCF7 cells assessed as late apoptotic cells at 10 uM incubated for 48 hrs by AnnexinV-FITC/propidium iodide staining based flow cytometry analysis (reference value: 0.015 %); format: functional
[10] = tested on: MCF7; assay: Induction of apoptosis in human MCF7 cells assessed as necrotic cells at 10 uM incubated for 48 hrs by AnnexinV-FITC/propidium iodide staining based flow cytometry analysis (reference value: 0.55 %); format: functional
[11] = molecular target: Histone deacetylase; assay: Inhibition of HDAC in human HeLa nuclear extract measured after 30 mins by fluorescence based assay; format: cell-free
[12] = molecular target: DNA topoisomerase 2-alpha (Homo sapiens) (UniProt P11388); assay: Poison activity at human topoisomerase 2 assessed as stabilization of enzyme-DNA cleavage complex by measuring linear DNA formation at 100 uM incubated for 6 mins by EtBr staining based UV light analysis
[13] = tested on: MCF7; assay: cells; format: functional; conditions: Homo sapiens, time 48 hrs
Description: Inhibition of cell migration in human MCF7 cells assessed as reduction in cell migration at 1 uM measured for 48 hrs by wound healing assay based microscopic analysis (Rvb = 70.25%)

[14] = tested on: MCF7; assay: cells; format: functional; conditions: Homo sapiens, time 48 hrs; remark: listed apart in the source
Description: Inhibition of cell migration in human MCF7 cells assessed as reduction in cell migration at 2.5 uM measured for 48 hrs by wound healing assay based microscopic analysis (Rvb = 70.25%)

DNA topoisomerase 2-alpha (Homo sapiens), sequence (P11388 whole entry): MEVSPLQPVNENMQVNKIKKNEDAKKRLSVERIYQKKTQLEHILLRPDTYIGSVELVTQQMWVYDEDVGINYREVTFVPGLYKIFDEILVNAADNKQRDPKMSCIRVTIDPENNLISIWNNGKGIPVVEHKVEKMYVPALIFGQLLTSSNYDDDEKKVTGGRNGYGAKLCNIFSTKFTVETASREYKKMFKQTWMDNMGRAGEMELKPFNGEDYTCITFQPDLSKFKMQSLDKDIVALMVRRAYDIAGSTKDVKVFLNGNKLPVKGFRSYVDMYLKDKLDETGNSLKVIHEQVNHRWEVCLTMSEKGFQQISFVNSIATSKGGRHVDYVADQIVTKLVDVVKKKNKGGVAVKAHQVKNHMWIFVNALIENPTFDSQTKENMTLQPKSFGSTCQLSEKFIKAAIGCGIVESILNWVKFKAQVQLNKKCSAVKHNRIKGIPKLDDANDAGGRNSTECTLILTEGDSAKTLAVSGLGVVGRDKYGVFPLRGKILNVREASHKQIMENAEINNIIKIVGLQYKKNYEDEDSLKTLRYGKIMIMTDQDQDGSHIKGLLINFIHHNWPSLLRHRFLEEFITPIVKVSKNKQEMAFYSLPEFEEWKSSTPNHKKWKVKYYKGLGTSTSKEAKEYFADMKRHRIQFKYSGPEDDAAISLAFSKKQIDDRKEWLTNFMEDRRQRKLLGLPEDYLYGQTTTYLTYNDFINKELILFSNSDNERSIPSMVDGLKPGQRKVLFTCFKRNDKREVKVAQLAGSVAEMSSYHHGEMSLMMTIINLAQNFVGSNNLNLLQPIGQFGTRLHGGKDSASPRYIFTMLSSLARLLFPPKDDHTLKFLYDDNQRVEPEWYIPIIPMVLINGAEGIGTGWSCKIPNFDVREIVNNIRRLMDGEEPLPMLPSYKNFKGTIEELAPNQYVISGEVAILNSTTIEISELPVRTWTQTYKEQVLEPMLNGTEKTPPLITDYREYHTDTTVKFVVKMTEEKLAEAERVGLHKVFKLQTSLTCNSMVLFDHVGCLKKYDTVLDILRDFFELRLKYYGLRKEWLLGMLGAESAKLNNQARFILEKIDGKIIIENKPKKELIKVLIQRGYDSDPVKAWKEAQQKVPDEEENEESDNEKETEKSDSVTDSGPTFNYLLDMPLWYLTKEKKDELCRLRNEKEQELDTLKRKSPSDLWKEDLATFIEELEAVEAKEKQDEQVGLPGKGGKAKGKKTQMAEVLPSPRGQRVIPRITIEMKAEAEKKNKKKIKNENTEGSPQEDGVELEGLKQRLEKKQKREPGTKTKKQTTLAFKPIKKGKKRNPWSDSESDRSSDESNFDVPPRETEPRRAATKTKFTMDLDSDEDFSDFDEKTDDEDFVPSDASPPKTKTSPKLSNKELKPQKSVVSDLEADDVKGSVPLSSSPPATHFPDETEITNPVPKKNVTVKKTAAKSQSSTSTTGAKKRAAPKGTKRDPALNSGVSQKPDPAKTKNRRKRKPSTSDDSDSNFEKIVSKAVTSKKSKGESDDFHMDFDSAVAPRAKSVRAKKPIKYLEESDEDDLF

Structure (SMILES): CCn1c(SCC(=O)Nc2ccc(/C(C)=N/O)cc2)nc2c([nH]c3ccccc32)c1=O
- IC50 [1]: 48.4 µM
- IC50 [2]: 37.2 µM
- IC50 [3]: 30.3 µM
- Activity [4]: 21.56%
- inhibition (active/inactive call) [5]: Active
- topoisomerase II inhibition (active/inactive) [6]: Active

Structure (SMILES): O=C(CCCSc1nc2c([nH]c3ccccc32)c(=O)[nH]1)NO
- IC50 [1]: 34.1 µM
- IC50 [2]: 41.4 µM
- IC50 [3]: 54.2 µM
- Activity [4]: 38.06%
- inhibition (active/inactive call) [5]: Active
- topoisomerase II inhibition (active/inactive) [6]: Active

Structure (SMILES): O=C(CCCCCCC(=O)Nc1ccccc1)NO [VORINOSTAT]
- IC50 [1]: 1.58 µM
- IC50 [3]: 1.58 µM
- Activity [4]: 14.98%
- viability at 10 µM [7]: 44.7%
- Activity [8]: 35.2%
- Activity [9]: 19.7%
- Activity [10]: 0.41%

Structure (SMILES): O=C(CCCSc1nc2[nH]ncc2c(=O)[nH]1)NO
- IC50 [1]: 27.5 µM
- IC50 [2]: 20.4 µM
- IC50 [3]: 21.7 µM
- Activity [4]: 32.15%
- inhibition (active/inactive call) [5]: Active

Structure (SMILES): O=C(/C=C/CSc1nc2c([nH]c3ccccc32)c(=O)[nH]1)NO
- IC50 [1]: 20.4 µM
- IC50 [2]: 49.3 µM
- IC50 [3]: 21.9 µM
- Activity [4]: 41.34%
- inhibition (active/inactive call) [5]: Active
- topoisomerase II inhibition (active/inactive) [6]: Active

Structure (SMILES): C/C(=N\O)c1ccc(NC(=O)CSc2nc3[nH]ncc3c(=O)[nH]2)cc1
- IC50 [1]: 42.5 µM
- IC50 [2]: 46.4 µM
- IC50 [3]: 31.2 µM
- Activity [4]: 41.36%
- inhibition (active/inactive call) [5]: Active

Structure (SMILES): CCn1c(SCCCCCCC(=O)NO)nc2c([nH]c3ccccc32)c1=O
- IC50 [1]: 46.4 µM
- IC50 [2]: 34.6 µM
- IC50 [3]: 21.8 µM
- Activity [4]: 61.71%
- inhibition (active/inactive call) [5]: Active

Structure (SMILES): CCn1c(SCCCC(=O)NO)nc2c([nH]c3ccccc32)c1=O
- IC50 [1]: 17.4 µM
- IC50 [2]: > 80 µM
- IC50 [3]: 18.1 µM
- Activity [4]: 46.33%
- inhibition (active/inactive call) [5]: Active

Structure (SMILES): O=C(CCCCCCSc1nc2c([nH]c3ccccc32)c(=O)[nH]1)NO
- IC50 [1]: 19.9 µM
- IC50 [2]: 25 µM
- IC50 [3]: 19.7 µM
- Activity [4]: 53.49%
- inhibition (active/inactive call) [5]: Active
- topoisomerase II inhibition (active/inactive) [6]: Active

Structure (SMILES): CCn1c(SC/C=C/C(=O)NO)nc2c([nH]c3ccccc32)c1=O
- IC50 [1]: 25.5 µM
- IC50 [2]: 35.5 µM
- IC50 [3]: 23.3 µM
- Activity [4]: 50.31%
- inhibition (active/inactive call) [5]: Active

Structure (SMILES): O=C(CCCCSc1nc2[nH]ncc2c(=O)[nH]1)NO
- IC50 [1]: 40 µM
- IC50 [2]: 18.9 µM
- IC50 [3]: 19.5 µM
- Activity [4]: 24.26%
- inhibition (active/inactive call) [5]: Active
- topoisomerase II inhibition (active/inactive) [6]: Active

Structure (SMILES): O=C(/C=C/c1ccc(CSc2nc3[nH]ncc3c(=O)[nH]2)cc1)NO
- IC50 [1]: 15.8 µM
- IC50 [2]: 21.5 µM
- IC50 [3]: 47.7 µM
- Activity [4]: 39.04%
- inhibition (active/inactive call) [5]: Active
- topoisomerase II inhibition (active/inactive) [6]: Active

Structure (SMILES): CCn1c(SCCCCCCCC(=O)NO)nc2c([nH]c3ccccc32)c1=O
- IC50 [1]: 36.4 µM
- IC50 [2]: 19.6 µM
- IC50 [3]: 25.1 µM
- Activity [4]: 43.12%
- inhibition (active/inactive call) [5]: Active

Structure (SMILES): O=C(CCSc1nc2[nH]ncc2c(=O)[nH]1)NO
- IC50 [1]: 19.1 µM
- IC50 [2]: 22.6 µM
- IC50 [3]: 31.8 µM
- Activity [4]: 48.81%
- inhibition (active/inactive call) [5]: Active
- topoisomerase II inhibition (active/inactive) [6]: Active

Structure (SMILES): C/C(=N\O)c1ccc(NC(=O)CSc2nc3c([nH]c4ccccc43)c(=O)[nH]2)cc1
- IC50 [1]: 33.3 µM
- IC50 [2]: > 80 µM
- IC50 [3]: 37.2 µM
- Activity [4]: 18.72%
- inhibition (active/inactive call) [5]: Active
- topoisomerase II inhibition (active/inactive) [6]: Active

Structure (SMILES): C/C(=N/O)c1ccc(NC(=O)CCCSc2nc3[nH]ncc3c(=O)[nH]2)cc1
- IC50 [1]: 36.6 µM
- IC50 [2]: 36.4 µM
- IC50 [3]: 44.7 µM
- Activity [4]: 38.02%
- inhibition (active/inactive call) [5]: Active

Structure (SMILES): O=C(CSc1nc2c([nH]c3ccccc32)c(=O)[nH]1)NO
- IC50 [1]: > 80 µM
- IC50 [2]: > 80 µM
- IC50 [3]: 26.7 µM
- Activity [4]: 38.47%
- inhibition (active/inactive call) [5]: Active
- topoisomerase II inhibition (active/inactive) [6]: Active

Structure (SMILES): CCn1c(SCC(=O)NO)nc2c([nH]c3ccccc32)c1=O
- IC50 [1]: 31.3 µM
- IC50 [2]: 41.2 µM
- IC50 [3]: 15 µM
- Activity [4]: 45.5%
- inhibition (active/inactive call) [5]: Active

Structure (SMILES): O=C(CSc1nc2[nH]ncc2c(=O)[nH]1)NO
- IC50 [1]: 31.2 µM
- IC50 [2]: > 80 µM
- IC50 [3]: 23.5 µM
- Activity [4]: 41.42%
- inhibition (active/inactive call) [5]: Active
- topoisomerase II inhibition (active/inactive) [6]: Active

Structure (SMILES): CCn1c(SCCC(=O)NO)nc2c([nH]c3ccccc32)c1=O
- IC50 [1]: 43.5 µM
- IC50 [2]: 42.7 µM
- IC50 [3]: 18.2 µM
- Activity [4]: 53.79%
- inhibition (active/inactive call) [5]: Active

Structure (SMILES): O=C(CCCCCSc1nc2c([nH]c3ccccc32)c(=O)[nH]1)NO
- IC50 [1]: 27.6 µM
- IC50 [2]: 28.6 µM
- IC50 [3]: 34.8 µM
- Activity [4]: 65.7%
- inhibition (active/inactive call) [5]: Active
- topoisomerase II inhibition (active/inactive) [6]: Active
- IC50 [11]: 2.58 µM

Structure (SMILES): CC[C@@]1(O)C(=O)OCc2c1cc1n(c2=O)Cc2cc3ccccc3nc2-1 [CAMPTOTHECIN]
- IC50 [1]: 17.8 µM
- IC50 [2]: 18.6 µM
- IC50 [3]: 18.2 µM
- Activity [4]: 37.51%

Structure (SMILES): COc1cc([C@@H]2c3cc4c(cc3[C@@H](O[C@@H]3O[C@@H]5CO[C@@H](C)O[C@H]5[C@H](O)[C@H]3O)[C@H]3COC(=O)[C@H]23)OCO4)cc(OC)c1O [ETOPOSIDE]
- IC50 [1]: 10.8 µM
- IC50 [2]: 29.7 µM
- IC50 [3]: 22.9 µM
- Activity [4]: 21.47%
- Activity [12]: Active
- viability at 10 µM [7]: 92.7%
- Activity [8]: 4.41%
- Activity [9]: 2.48%
- Activity [10]: 0.37%
- inhibition at 1 µM [13]: 64.7%
- inhibition at 2.5 µM [14]: 47.1%

Structure (SMILES): O=C(/C=C/c1ccc(CSc2nc3c([nH]c4ccccc43)c(=O)[nH]2)cc1)NO
- IC50 [1]: 21.8 µM
- IC50 [2]: 37.2 µM
- IC50 [3]: 30.3 µM
- Activity [4]: 21.56%
- inhibition (active/inactive call) [5]: Active
- IC50 [11]: 2.38 µM

Structure (SMILES): O=C(CCCCCSc1nc2[nH]ncc2c(=O)[nH]1)NO
- IC50 [1]: 25.8 µM
- IC50 [2]: 15.5 µM
- IC50 [3]: 21.6 µM
- Activity [4]: 20.31%
- inhibition (active/inactive call) [5]: Active
- topoisomerase II inhibition (active/inactive) [6]: Active

Structure (SMILES): CCn1c(SCCCCCC(=O)NO)nc2c([nH]c3ccccc32)c1=O
- IC50 [1]: 26 µM
- IC50 [2]: 25.7 µM
- IC50 [3]: 19.6 µM
- Activity [4]: 43.13%
- inhibition (active/inactive call) [5]: Active

Structure (SMILES): O=C(CCSc1nc2c([nH]c3ccccc32)c(=O)[nH]1)NO
- IC50 [1]: 24.8 µM
- IC50 [2]: 59.6 µM
- IC50 [3]: 28 µM
- Activity [4]: 21.73%
- inhibition (active/inactive call) [5]: Active
- topoisomerase II inhibition (active/inactive) [6]: Active
